What is called IC50 is the concentration needed to halve the response being measured.

One series concerns white blood cells. Put plainly: Immune cell selective uptake from blood cell mix (immune selectivity ratio method). The format is cell-based, mammalian. The procedure:
Freshly drawn heparinised blood or buffy coat preparations are used for the determination of immune cell partition ratios. Buffy coat preparations are preferred. These may be obtained from donor blood by simple centrifugation of whole blood (4795 g for 10 minutes). Following centrifugation, plasma is collected from the surface, after which immune cells are expressed from the donor bags along with the erythrocytes lying immediately below the leukocyte layer. This ensures high yields and a sufficient population of erythrocytes for partition. 5 ml of the resulting cell suspension are dispensed into T25 culture flasks. Substrates are added to a final concentration between 1 and 10 μM and the suspensions incubated at 37° C., in a 5% CO2 atmosphere. For analysis of uptake kinetics, samples are withdrawn at 0, 2, 5, 10, 30, 60, 90, 180, or 240 min after substrate addition. For screening purposes, samples are taken at 0 and 120 minutes. […]
Uptake of fluorescent compounds is monitored using fluorescence microscopy. Excitation and emission wavelengths depend of the fluorescence label in use. […]
Cell lysates are analysed using a HP 1100 HPLC System (Agilent Technologies, Waldbronn, Germany) with a Kromasil 3.5μ C18, 50×2.0 mm column and guard cartridge system (both, Phenomenex, Aschaffenburg, Germany) run at 30° C. […]
Masses are monitored according to the known or expected M/Z ratios. […]

Another series has as its system E. coli (DH5α). The series is described as follows: Testing of antibiotic activity (TC50, dilution assay, turbidity). It is filed as cell-based. Conditions: concentration that inhibits 50% of the growth. The method, then: The TC50 or MIC procedure for antibiotic sensitivity testing involves an antibiotic dilution assay, which can be performed in microtitre plates. A series of twofold dilutions of each antibiotic are made in the wells, and then all wells are inoculated with a standard amount of the same test organism. After incubation, growth in the presence of the various antibiotics is observed by measuring turbidity.
Bacteria: B. pumilus and E. coli (DH5α) Bacterial cultures are initiated from the plates for 2 to 3 weeks. After this time period bacteria are streaked out on new plates from the backups stored at −80° C. Due to the lack of resistance of the bacteria, new cultures are not to be initiated from an old plate or any liquid cultures derived from old plates. Growth medium (GM) (per liter): 10 g Bacto-tryptone, 5 g Bacto-yeast extract, 6 g HEPES (25 mM), 5.4 g NaCl, pH 7.3 Compound stocks 10 or 100 mM in DMSO stored at −20° C.
• 1. Grow B. pumilus from an LB agar plate in a flask (max. 10% volume) up to about 50 ml in growth medium (GM) • 2. Dilute overnight suspension 1:10 in GM • 3. Determine OD600 of diluted bacterial suspension • 4. Dilute bacterial suspension in GM to an OD600 of 0.03-0.04. (6 ml/plate) • 5. Add 200 μl GM to the outer wells (Row A, Row H, Column 1, Column 12) • 6. Add 100 μl GM to each well starting from C2, row 3. • 7. Controls: Wells B2-B4 growth control. Wells B6-B8 blank. Row C growth inhibition control. • 7.1. To wells B2-B4 add: 96 μl GM, 4 μl DMSO, and 100 μl bacterial suspension adjusted to an OD600 of 0.03-0.04. • 7.2. To wells B6-B8 add: 196 μl GM and 4 μl DMSO • 7.3. Dilute a 10 mM Compound 43 (positive control) stock to 800 μM (120 μl/plate) in GM. Add 100 μl of 800 μM Compound 43 solution to well C2. • 8. Samples • 8.1. Dilute the 10 or 100 mM stock solutions to 800 μM (250 μl/plate) in GM. • 8.2. Add 100 μl of 800 μM sample in duplicates to wells D2/E2 resp. F2/G2. • 8.3. 2-fold serial dilution of all samples and Azithromycin • 8.3.1. Rows C-G, Columns 2: Mix and transfer 100 μl from each row to Column 3, and continue until column 11. The remaining 100 μl out of column 11 are disposed. • 9. Add 100 μl of bacterial suspension (OD600 0.03-0.04) to each well from C2-G11. • 10. Incubate plates on shaker, 750 rpm, 37° C., until the growth controls have reached an OD600 of 0.6-0.8 (approximately 6-8 h).
11. Determine OD600 on plate reader.

The subject of the next series is lymphocytes. The series is described as follows: Proliferation assay (BrdU ELISA, phytohemagglutanin-stimulated). It is filed as cell-based, mammalian. To be noted: for Ratio (2 h:72 h): IC50 at 2 h : IC50 at 72 h, lower = better uptake and release; for IC50: Lymphocyte. From the text: Assay to determine the in vitro rate of, for example, lymphocyte proliferation. Lymphocytes are purified out of ant coagulated (CPDA, citrate or heparin) mammalian blood using the Lymphoprep™ system (supplier). Purified cells are counted using a hemocytometer following Trypan Blue staining, and a cell concentration of 1×10^6 cells/ml established in RPMi 1640 medium with 10% FCS and antibiotics as required (all from Biochrome). Following the addition of a cell proliferation stimulant, for example phytohemagglutanin (Sigma) at, for example an end concentration of 5 μg/ml, the cells are incubated with different concentrations of the to be investigated compound in 100 μl end volume in a 96-well microtiter plate in an incubator (37° C., 5% CO2, 95% humidity) for 72 h. Cell proliferation is quantified following BrdU incorporation for 16 h by ELISA and subsequent calorimetric development (Cell Proliferation ELISA BrdU (colorimetric) kit from Roche Diagnostics). The IC50 (μM) values are then calculated, and used to compare compound efficacy.
To determine the influence of the T-L-C modification on in vitro cellular drug uptake and pharmacology, the above assay is additionally modified and an additional “wash” step included. In addition to running the assay for 72 h with the compounds to be tested, the assay is also run for just 2 h, then compound is washed away in three serial washing steps using 200 μl of medium at each step, and the cells subsequently incubated for a further 70 h. […] The lower the number, the better the uptake and drug release from the T-L-C in the cells (see results in Table 4 for examples), and improvement over mycophenolic acid.
In general terms: Incorporation of labelled thymidine or its analogues reports DNA synthesis.

[1] abbreviates: read-out: IC50 (μM) at 2 h, 2 h with compound, washed away, further 70 h incubation.
Where [2] appears, read: 72 h incubation with compound, read-out: IC50 (μM) at 72 h.

The structures appear in SMILES notation. Read-outs that look alike come from different tables or passages of the source.

Take `CC[C@H]1OC(=O)[C@H](C)[C@@H](OC2C[C@@](C)(OC)[C@@H](O)[C@H](C)O2)[C@H](C)[C@@H](OC2O[C@H](C)C[C@H](N(C)C)[C@H]2O)[C@](C)(O)C[C@@H](C)/C(=N/OCc2cc(=O)oc3cc(OC)c(OC)cc23)[C@H](C)[C@@H](O)[C@]1(C)O` (stereo partly drawn) [Compound 3]: the intracellular distribution entry in the series with white blood cells (polymorphonuclear cells, fluorescent image (FIG. 3)) is “even distribution with some concentration near the nucleus”. Take `COc1cc(C)c(/C(=C\C(C)=O)CC(N)C(=O)O)cc1OC` (stereo not drawn) [Compound 4]: the uptake speed result in the series on white blood cells (fluorescent compounds, images during uptake) is on record as “uptake is rapid”. Turning to `CC[C@H]1OC(=O)[C@H](C)C(=O)[C@H](C)[C@@H](O[C@@H]2O[C@H](C)CC(N(C)C)[C@H]2O)[C@](C)(O)C[C@@H](C)CN(C)[C@H](C)[C@@H](O)[C@]1(C)O` (stereo partly drawn) [Compound 40], the “TC50 in E. coli” value with E. coli (DH5α) is more than 50 µM. Consider `CC[C@H]1OC(=O)[C@H](C)[C@@H](O[C@H]2C[C@@](C)(OC)[C@@H](O)[C@H](C)O2)[C@H](C)[C@@H](O[C@@H]2O[C@H](C)C[C@H](N(C)C)[C@H]2O)[C@](C)(O)C[C@@H](C)CN(C)[C@H](C)[C@@H](O)[C@]1(C)O` [Compound 43, 9a-aza-9a-methyl-9-deoxo-9a-homoerythromycin A, reference compound], for which, in the series with E. coli (DH5α), the “TC50 in E. coli” value was found to be 2.3 µM. Same read-out and setting: under `CC[C@H]1OC(=O)[C@H](C)[C@@H](O[C@H]2C[C@@](C)(OC)[C@@H](O)[C@H](C)O2)[C@H](C)[C@@H](O[C@@H]2O[C@H](C)CC(N(C)C(=O)CN(C)CCO)[C@H]2O)[C@](C)(O)C[C@@H](C)CN(C)[C@H](C)[C@@H](O)[C@]1(C)O` (stereo partly drawn) [Compound 45] stands more than 50 µM; under `CC[C@H]1OC(=O)[C@H](C)C(=O)[C@H](C)[C@@H](O[C@@H]2O[C@H](C)C[C@H](N(C)C)[C@H]2OC(=O)Cc2ccccc2Nc2c(Cl)cccc2Cl)[C@](C)(O)C[C@@H](C)CN(C)[C@H](C)[C@@H](O)[C@]1(C)O` [Compound 53], more than 50 µM.

With `CC[C@H]1OC(=O)[C@H](C)[C@@H](O[C@H]2C[C@@](C)(OC)[C@@H](O)[C@H](C)O2)[C@H](C)[C@@H](O[C@@H]2O[C@H](C)CC(N(C)C)[C@H]2OC(=O)CC/C(C)=C/Cc2c(O)c3c(c(C)c2OC)COC3=O)[C@](C)(O)C[C@@H](C)CN(C)[C@H](C)[C@@H](O)[C@]1(C)O` (stereo partly drawn) [Compound 67], the “Ratio (2 h:72 h)” value with lymphocytes worked out at 1.3. Further, the values for the IC50 in the series on lymphocytes (setting [1]) and with lymphocytes (setting [2]) were 1.74 µM and 1.36 µM, respectively.

With `CCOC(=O)CC/C(C)=C/Cc1c(CC(=O)CCC(=O)O[C@@H]2C(N(C)C)C[C@@H](C)O[C@H]2O[C@@H]2[C@@H](C)[C@H](O[C@H]3C[C@@](C)(OC)[C@@H](O)[C@H](C)O3)[C@@H](C)C(=O)O[C@H](CC)[C@@](C)(O)[C@H](O)[C@@H](C)N(C)C[C@H](C)C[C@@]2(C)O)c2c(c(C)c1OC)COC2=O` (stereo partly drawn) [Compound 69], in the series on lymphocytes, the “Ratio (2 h:72 h)” value is listed as 1.9. Further, the figures for the IC50 in the series with lymphocytes (setting [1]) and with lymphocytes (setting [2]) were 2.66 µM and 1.4 µM, respectively.

For `CC[C@H]1OC(=O)[C@H](C)[C@@H](C)[C@H](C)[C@@H](O[C@@H]2O[C@H](C)C[C@@H](N(C)CCOC(=O)CC/C(C)=C/Cc3c(O)c4c(c(C)c3OC)COC4=O)[C@@H]2N(C)C)[C@](C)(O)C[C@@H](C)CN(C)[C@H](C)[C@@H](O)[C@]1(C)O` [Compound 74], in the series on lymphocytes, the “Ratio (2 h:72 h)” value came out at 1.45. Further, the IC50 worked out at 3.2 µM in the series on lymphocytes (setting [1]) and 2.2 µM in the series on lymphocytes (setting [2]).

The record behind these values is patent US20080145343A1, “Conjugates of biologically active compounds, methods for their preparation and use, formulation and pharmaceutical applications thereof” (priority 2002, published 2008).
